The values below come from ChEMBL document CHEMBL1147998, “Synthesis of pH-sensitive amphotericin B-poly(ethylene glycol) conjugates and study of their controlled release in vitro” (Bioorg Med Chem, 2007).

The nature of the data set: Toxicity in iv dosed NMRI mouse after 14 days. The class given is organism-based. Particulars: in vivo.

With `C[C@@H]1[C@H](O)[C@@H](C)/C=C/C=C/C=C/C=C/C=C/C=C/C=C/[C@H](O[C@@H]2O[C@H](C)[C@@H](O)[C@H](N)[C@@H]2O)C[C@@H]2O[C@](O)(C[C@@H](O)C[C@@H](O)[C@H](O)CC[C@@H](O)C[C@@H](O)CC(=O)O[C@H]1C)C[C@H](O)[C@H]2C(=O)O` [AMPHOTERICIN B], the median lethal dose (LD50) (commonly the dose expected to kill half of the subjects tested) at 336 h was 3.7 mg/kg.
